# Source: the supplement of paper PMC10307832
# Legend:
# Test in all cases: relative viability (nuclei count vs DMSO), 5 days (fraction); higher = more cells survive
# NCI-H1355 = tested on: NCI-H1355
# Procedure, shortened: (§1)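 The day after seeding in 1536-well plates, lung cancer cell lines were treated by pin tool with a single drug, or with a fixed anchor-drug dose together with five library-drug doses (not always all listed) in √10 steps. After 5 days, a combined fix-and-stain solution (final 0.05% Triton X-100, 1% formaldehyde, 1 ug/ml Hoechst) was added. Nuclei counted on 4× images gave relative viability as treated counts over vehicle counts, reported as the median of duplicate plates.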
# NCI-H2342 = tested on: NCI-H2342
# Procedure, shortened: as §1
# H3255 = tested on: H3255
# Procedure, shortened: as §1
# NCI-H1975 = tested on: NCI-H1975
# Procedure, shortened: as §1
# EPLC-272H = tested on: EPLC-272H
# Procedure, shortened: as §1
# NCI-H322M = tested on: NCI-H322M
# Procedure, shortened: as §1
# NCI-H460 = tested on: NCI-H460
# Procedure, shortened: as §1
# NCI-H2087 = tested on: NCI-H2087
# Procedure, shortened: as §1
# EKVX = tested on: EKVX
# Procedure, shortened: as §1
# HCC-366 = tested on: HCC-366
# Procedure, shortened: as §1
# NCI-H2009 = tested on: NCI-H2009
# Procedure, shortened: as §1
# SK-MES-1 = tested on: SK-MES-1
# Procedure, shortened: as §1
# NCI-H1792 = tested on: NCI-H1792
# Procedure, shortened: as §1
# COR-L 105 = tested on: COR-L 105
# Procedure, shortened: as §1
# HCC-827 = tested on: HCC-827
# Procedure, shortened: as §1
# NCI-H441 = tested on: NCI-H441
# Procedure, shortened: as §1
# NCI-H2085 = tested on: NCI-H2085
# Procedure, shortened: as §1
# ABC-1 = tested on: ABC-1
# Procedure, shortened: as §1
# NCI-H1993 = tested on: NCI-H1993
# Procedure, shortened: as §1
# ChaGo-K-1 = tested on: ChaGo-K-1
# Procedure, shortened: as §1
smiles,measurement,setting,value
Cc1csc(=NC2CCCCC2)n1/N=C/c1ccc(O)c(O)c1O [MIM1] + Nc1ncn([C@H]2C[C@H](O)[C@@H](CO)O2)c(=O)n1 [Decitabine] (partner 2 µM),relative viability,NCI-H1355; first compound 0.2 µM,0.361
same,relative viability,NCI-H1355; first compound 0.6325 µM,0.343
same,relative viability,NCI-H1355; first compound 2 µM,0.386
same,relative viability,NCI-H1355; first compound 6.325 µM,0.339
same,relative viability,NCI-H1355; first compound 20 µM,0.332
same,relative viability,NCI-H2342; first compound 0.2 µM,0.724
same,relative viability,NCI-H2342; first compound 0.6325 µM,0.721
same,relative viability,NCI-H2342; first compound 2 µM,0.708
same,relative viability,NCI-H2342; first compound 6.325 µM,0.664
same,relative viability,NCI-H2342; first compound 20 µM,0.724
same,relative viability,H3255; first compound 0.2 µM,0.562
same,relative viability,H3255; first compound 0.6325 µM,0.657
same,relative viability,H3255; first compound 2 µM,0.527
same,relative viability,H3255; first compound 6.325 µM,0.486
same,relative viability,H3255; first compound 20 µM,0.242
same,relative viability,NCI-H1975; first compound 0.2 µM,0.384
same,relative viability,NCI-H1975; first compound 0.6325 µM,0.385
same,relative viability,NCI-H1975; first compound 2 µM,0.39
same,relative viability,NCI-H1975; first compound 6.325 µM,0.216
same,relative viability,NCI-H1975; first compound 20 µM,0.137
same,relative viability,EPLC-272H; first compound 0.2 µM,0.36
same,relative viability,EPLC-272H; first compound 0.6325 µM,0.382
same,relative viability,EPLC-272H; first compound 2 µM,0.375
same,relative viability,EPLC-272H; first compound 6.325 µM,0.29
same,relative viability,EPLC-272H; first compound 20 µM,0.154
same,relative viability,NCI-H322M; first compound 0.2 µM,0.622
same,relative viability,NCI-H322M; first compound 0.6325 µM,0.74
same,relative viability,NCI-H322M; first compound 2 µM,0.736
same,relative viability,NCI-H322M; first compound 6.325 µM,0.642
same,relative viability,NCI-H322M; first compound 20 µM,0.653
same,relative viability,NCI-H460; first compound 0.2 µM,0.438
same,relative viability,NCI-H460; first compound 0.6325 µM,0.479
same,relative viability,NCI-H460; first compound 2 µM,0.43
same,relative viability,NCI-H460; first compound 6.325 µM,0.182
same,relative viability,NCI-H460; first compound 20 µM,0.0456
same,relative viability,NCI-H2087; first compound 0.2 µM,0.286
same,relative viability,NCI-H2087; first compound 0.6325 µM,0.273
same,relative viability,NCI-H2087; first compound 2 µM,0.231
same,relative viability,NCI-H2087; first compound 6.325 µM,0.327
same,relative viability,NCI-H2087; first compound 20 µM,0.246
same,relative viability,EKVX; first compound 0.2 µM,0.405
same,relative viability,EKVX; first compound 0.6325 µM,0.342
same,relative viability,EKVX; first compound 2 µM,0.331
same,relative viability,EKVX; first compound 6.325 µM,0.321
same,relative viability,EKVX; first compound 20 µM,0.341
same,relative viability,HCC-366; first compound 0.2 µM,0.295
same,relative viability,HCC-366; first compound 2 µM,0.354
same,relative viability,HCC-366; first compound 6.325 µM,0.176
same,relative viability,HCC-366; first compound 20 µM,0.0249
same,relative viability,NCI-H2009; first compound 0.2 µM,0.401
same,relative viability,NCI-H2009; first compound 0.6325 µM,0.39
same,relative viability,NCI-H2009; first compound 2 µM,0.371
same,relative viability,NCI-H2009; first compound 6.325 µM,0.36
same,relative viability,NCI-H2009; first compound 20 µM,0.291
same,relative viability,SK-MES-1; first compound 0.2 µM,0.454
same,relative viability,SK-MES-1; first compound 0.6325 µM,0.424
same,relative viability,SK-MES-1; first compound 2 µM,0.376
same,relative viability,SK-MES-1; first compound 6.325 µM,0.272
same,relative viability,SK-MES-1; first compound 20 µM,0.21
same,relative viability,NCI-H1792; first compound 0.2 µM,0.574
same,relative viability,NCI-H1792; first compound 0.6325 µM,0.497
same,relative viability,NCI-H1792; first compound 2 µM,0.611
same,relative viability,NCI-H1792; first compound 6.325 µM,0.439
same,relative viability,NCI-H1792; first compound 20 µM,0.411
same,relative viability,COR-L 105; first compound 0.2 µM,0.592
same,relative viability,COR-L 105; first compound 0.6325 µM,0.661
same,relative viability,COR-L 105; first compound 2 µM,0.72
same,relative viability,COR-L 105; first compound 6.325 µM,0.571
same,relative viability,COR-L 105; first compound 20 µM,0.571
same,relative viability,HCC-827; first compound 0.2 µM,0.331
same,relative viability,HCC-827; first compound 0.6325 µM,0.334
same,relative viability,HCC-827; first compound 2 µM,0.305
same,relative viability,HCC-827; first compound 6.325 µM,0.292
same,relative viability,HCC-827; first compound 20 µM,0.175
same,relative viability,NCI-H441; first compound 0.2 µM,0.132
same,relative viability,NCI-H441; first compound 0.6325 µM,0.252
same,relative viability,NCI-H441; first compound 2 µM,0.241
same,relative viability,NCI-H441; first compound 6.325 µM,0.173
same,relative viability,NCI-H441; first compound 20 µM,0.178
same,relative viability,NCI-H2085; first compound 0.2 µM,0.539
same,relative viability,NCI-H2085; first compound 0.6325 µM,0.522
same,relative viability,NCI-H2085; first compound 2 µM,0.516
same,relative viability,NCI-H2085; first compound 6.325 µM,0.491
same,relative viability,NCI-H2085; first compound 20 µM,0.563
same,relative viability,ABC-1; first compound 0.2 µM,0.974
same,relative viability,ABC-1; first compound 0.6325 µM,1.28
same,relative viability,ABC-1; first compound 2 µM,1.14
same,relative viability,ABC-1; first compound 6.325 µM,0.944
same,relative viability,ABC-1; first compound 20 µM,0.427
same,relative viability,NCI-H1993; first compound 0.2 µM,0.534
same,relative viability,NCI-H1993; first compound 0.6325 µM,0.531
same,relative viability,NCI-H1993; first compound 2 µM,0.517
same,relative viability,NCI-H1993; first compound 6.325 µM,0.483
same,relative viability,NCI-H1993; first compound 20 µM,0.3
same,relative viability,ChaGo-K-1; first compound 0.2 µM,0.542
same,relative viability,ChaGo-K-1; first compound 0.6325 µM,0.527
same,relative viability,ChaGo-K-1; first compound 2 µM,0.544
same,relative viability,ChaGo-K-1; first compound 6.325 µM,0.459
same,relative viability,ChaGo-K-1; first compound 20 µM,0.18
